The source of these data is US20200329698A1, “COMPOSITIONS FOR ORGAN GRAFT PRESERVATION AND METHODS OF USE” (Nobilis Therapeutics, Inc., priority 2019, published 2020).

SMILES strings stand for the structures.

Assay [1] relates to brain. Conditions: 70% argon; cited from earlier work.
For assay [2], the system named is Fischer rats renal grafts from cardiac arrest donation. The assay is described as follows: DCD renal graft preservation with xenon or argon with or without dexmedetomidine, then transplantation. The format is in vivo, rat. Conditions: UW saturated with 70% gas, with or without Dex 0.1 nM; day 8 after transplantation. As for the experimental part:
Briefly, after intravenous heparinization (300 U) in 1 ml saline via the penile vein under 2% isoflurane anaesthesia, cardiac arrest was induced by cervical dislocation (schedule 1 killing). The cessation of the heart beat was observed within 3-5 minutes and donor animals were kept for 40 minutes on a 37° C. pad.
This protocol was obtained from our pilot studies and the both graft injury and a therapeutic window can be achieved. The preserving solution was saturated with 70% nitrogen, xenon or argon gas, combined with or without dexmedetomidine 0.1 nM [32]. […] Macrophage infiltration and renal fibrosis were attenuated by the treatments on day 16 after surgery (FIGS. 12A-12D).
With respect to FIGS. 10A-10D, Fischer rats renal grafts from cardiac arrest donation were stored with UW preserving solution at 4° C., saturated with nitrogen or xenon or argon gas (70% N2 or Xe or Ar and 5% CO2 balanced with O2 supplemented with Dex), machine perfused for 4 hours and stored until 24 hours. Normal kidney graft serves as naive control (NC), grafts treated with preserving solution only served as sham, and the grafts were then transplanted into Lewis recipient and finally harvested day 8 after transplantation. (FIG. 10A) Renal morphology were assessed by H and E staining (n=4-6) and (FIG. 10B) evaluated by the injury scoring system. (FIG. 10C) TUNEL staining of renal tubules in renal cortex. […]

Assay [3] has as its system renal grafts from live donor. The settings on record: preserving solution saturated with argon; cited from earlier work.
Assay [4] deals with ex vivo renal grafts from brain death or cardiac arrest donors. The assay is described as follows: Rat hypothermic machine perfusion model. The settings on record: exposure of ex vivo grafts prior to engraftment.
The test system of assay [5] is Lewis rat lung grafts extracted after cardiac death. The assay is described as follows: DCD lung graft stored in Dex-saturated UW after donor treatment with Nrf-2 siRNA or atipamezole. The settings on record: given to donor before extraction. As for the experimental part:
Nrf-2 siRNA or scrambled siRNAs (negative control) (QIAGEN®) were dissolved in siRNA suspension buffer and further diluted in RNase-free PBS before use. siRNA targeting rat Nrf-2 (sc-37030, SANTA CRUZ BIOTECHNOLOGY®, USA) was administered through hydrodynamic tail vein injection. Nrf-2 or scrambled siRNA ([…] in 10 ml of PBS) was rapidly injected (within 30 s) via a tail vein under anaesthesia and allow to recover for 24 h before the experiment. Atipamezole (α2-adrenergic antagonist, SIGMA-ALDRICH®, St. Louis, Mo., USA, 250 μg/kg, i.p.) was administered 10 minutes graft extraction.
In order to further investigate the mechanisms underlying the protective effects of dexmedetomidine on lung grafts, Nrf-2 siRNA and atipamezole treatment was administered donor before lung grafts extraction. The grafts were subsequently stored in Dex-saturated UW solution. TLR-4 and RIP3 immunofluorescent labelling was performed in lung grafts, with and without Nrf-2 siRNA (FIG. 9A), and with and without atipamezole treatment (FIG. 9B). […] 3-nitrotyrosine and 4-hydroxynonenal immunofluorescent labelling was performed in lung alveolar cells at CI 16 h, with and without Nrf-2 siRNA or with and without atipamezole treatment (FIGS. 9E and 9F) at CI 16 h. […] Together, these findings indicate that upregulation of the Nrf-2 and α2 adrenergic pathways are both critical to the protective effects of Dex on lung grafts. […] With respect to FIGS. 9A-9K, Lewis rat lung grafts were extracted after cardiac death and stored in 4° C. UW solution saturated with Dex (0.1 nM) or without Dex (Vehicle) for 16 hours (lung graft cold ischemia CIO 16 hr). Nrf-2 siRNA or atipamezole was given to the donor before graft extracting. Dual labelling of Rip-3 (red) and TLR-4 (green) in lung tissue after (FIG. 9A) SiRNA treatment or (FIG. 9B) atipamezole. Fluorescent intensity of (FIG. 9C) RIPK3 and (FIG. 9D) TLR-4 in lung tissue. The expression of 3-nitrotyrosine and 4-hydroxynonenal was assessed with immunofluorescent labelling after (FIG. 9E) SiRNA treatment or (FIG. 9F) Atipamezole. Fluorescent intensity of (FIG. 9G) 3-nitrotyrosine and (FIG. 9H) 4-hydroxynonenal. Nuclei were counterstained with 4′,6-diamidino-2-phenylindole (DAPI) (blue). (FIGS. 9I and 9K) Histology (haematoxylin and eosin staining) of the lung graft and injury score. (FIG. 9J) HMGB-1 in lung graft tissue, were assessed by ELISA. Scale bar: 50 μm. […] NC: naïve control, rCI: renal graft cold ischemia. HMGB, high mobility group box 1 protein; CI, cold ischaemia; NC, naïve control; TLR-4, toll-like receptor 4.

Assay [6] deals with isografts, weak immune-allografts and strong immuno-allografts. Conditions: xenon to living donor before graft retrieval or to recipient after engraftment; cited from earlier work.
The test system of assay [7] is kidney. The settings on record: in vivo; cited from earlier work.
Assay [8] relates to ex-vivo rat kidney. Conditions: cited from earlier work.
Setting [9] is: ice-cold Soltran saturated with 70% Xe, 24 hrs, vs 70% N2.

Regarding `[Ar]` [argon], in assay [1], the neuroprotection result is on record as “neuro-protective”. For the same compound, in assay [2], the “renal architecture during prolonged cold preservation (H&E injury score, TUNEL)” value is “preserved the renal architrave”. In addition, the “preservation of renal grafts against hypothermic-ischemic injury” value in assay [3] is “superior in preserving renal grafts”. For the same compound, the “organ graft injury, histologically and functionally” value in assay [4] was “prevent organ graft injury”.
In the case of `CCC1(c2cnc[nH]2)Cc2ccccc2C1` [atipamezole, Atipamezole], in assay [5] (CI 16 h), the “3-nitrotyrosine expression (fluorescent intensity)” value is “significant increase” and the “4-hydroxynonenal expression (fluorescent intensity)” value is recorded as “significant increase”. In assay [5] (CI 16 hr), the “HMGB-1 expression in lung graft tissue (ELISA)” value was “significantly increased”, the “expression of RIP3 (fluorescent intensity)” value is “enhanced expression”, the lung injury scoring result is “significant increase” and the “lung morphology (H&E)” value was “deteriorated significantly”. The “expression of TLR-4 (fluorescent intensity)” value in assay [5] (CI 16 hr, p<0.01) is on record as “enhanced expression”.
With `[Xe]` [xenon], in assay [6], the early graft injury result was “protected against early graft injury” and the graft survival entry is “prolonged graft survival”. In addition, in assay [7], the “kidney warm ischemic injury” value is listed as “protect against kidney warm ischemic injury”. In assay [8] (after engraftment), the delayed graft function entry is “reduced” and the renal inflammation entry was “reduced”. In assay [8] (day 8 after surgery), the fibrosis entry is reported as “significantly reduced” and the macrophage infiltration entry is “significantly reduced”. In assay [8] (setting [9]), the “expression of Bcl-2” value is reported as “enhanced expression” and the “expression of HSP-70” value is reported as “enhanced expression”. Moreover, the tubular cell death entry in assay [8] (twenty-four hrs after engraftment) is on record as “significantly decreased”. Further, the “morphological structure of the ex-vivo rat kidney” value in assay [8] (xenon-containing Soltran solution) is “well preserved”. Further, the “renal architecture during prolonged cold preservation (H&E injury score, TUNEL)” value in assay [2] is “preserved the renal architrave”. In addition, the “organ graft injury, histologically and functionally” value in assay [4] was “prevent organ graft injury”.
